In patent US20160031859A1, “Alkyl [(S)-1-((S)-2--buta-1,3-diynyl)-phenyl]-1H-imidazol-2-yl}-pyrrolidine-1-carbonyl)-2-methyl-propyl]-carbamate naphthalene-1,5-disulfonate, pharmaceutical composition, medicament, method for treatment of viral diseases” (priority 2013, published 2016):

Experiments:
[1] = system: subgenomic RNA-replicon HCV (genotype 1b, clon Con1); experiment: HCV replicon immunoenzymatic assay in Huh7 cells, genotype 1b; assay type: cell-based; details: Hepatitis C virus, Huh-7, read-out: gT1b FBS EC50
Method: Determination of antiviral activity of the compounds of the general formula 1 (inhibiting ability of NS5A protein).
Inhibiting ability of compounds of formula 1 of NS5A protein was determined in the human hepatoma cell line Huh7, comprising subgenomic RNA-replicon HCV (genotype 1b, don Con1). A version of immumoenzymatic assay (IEA) on viral protein NS5A in 96-well plate was used as an experimental method. Cytotoxicity of the compounds was estimated in parallel regime.
Cells Huh7 were seeded in 96-well plate (7.5×10^3 cells to each well in 100 μl of culture medium). Solutions of the tested compounds in DMEM medium {DMEM 1×; Source: Cellgro; Catalogue: 10-013-CV} were prepared immediately before use. Eleven serial three fold dilutions with variation of concentrations from 20 nM to 0.2 pM were prepared. In 4 hours after seeding, serial dilutions of the compounds were added to the cells (100 μl to each well). Final concentration of tested compounds was varied from 10 nM to 0.1 pM, and DMSO—0.5%. If it was necessary, higher concentrations of the disclosed azoles were investigated. Each dilution of the compound was tested on two identical wells. […] The reaction was arrested by the addition of 2N H2SO4 in amount of 100 μl/well, and optical density (wavelength 490 nm) was measured by means of multiscan plate reader Victor3 V 1420 (Perkin Elmer). […]

[2] = system: genotype 1a HCV; experiment: HCV replicon inhibitory activity, genotype 1a; assay type: cell-based; details: Hepatitis C virus; HCV genotype 1a, FBS; read-out: gT1a FBS EC50
[3] = system: genotype 2a HCV; experiment: HCV replicon inhibitory activity, genotype 2a; assay type: cell-based; details: Hepatitis C virus; HCV genotype 2a, FBS; read-out: gT2a FBS EC50
[4] = Investigation of storage of naphthalene-1,5-disulfonates (amount of admixtures, UV 220 nm); assay type: physicochemical; details: for Max admixture / Sum of admixtures: refrigerator, 4.7° C.
Method: Investigation of storage of naphthalene-1,5-disulfonates of the general formula 1. All samples were stored in glass vials sealed with rubber cork and aluminum caps, in a refrigerator at a temperature of about ˜4.7 ° C. The amount of admixtures was determined by method of internal normalization, detection was carried out using UV detector at 220 nm. Below are given the test results for compound 1.1 showing their stability at temperature 4.7° C.

COC(=O)N[C@H](C(=O)N1CCC[C@H]1c1ncc(C#CC#Cc2ccc(-c3cnc([C@@H]4CCCN4C(=O)[C@@H](NC(=O)OC)C(C)C)[nH]3)cc2)[nH]1)C(C)C [Compound 1.1, methyl [(S)-1-((S)-2-{5-[4-(4-{2-[(S)-1-((S)-2-methoxycarbonylamino-3-methyl-butyryl)-pyrrolidin-2-yl]-3H-imidazol-4-yl}-buta-1,3-diynyl)-phenyl]-1H-imidazol-2-yl}-pyrrolidine-1-carbonyl)-2-methylpropyl]-carbamate naphthalene-1,5-disulfonate] showed an EC50 [1] of less than 1 nM, an EC50 [2] of less than 1 nM and an EC50 [3] of less than 1 nM. For the same compound, the Max admixture ([4]; 1 week storage) was 0.348%, the Sum of admixtures ([4]; 1 week storage) was 1.369% and the Max admixture ([4]; 4 weeks storage) was 0.341%. The Sum of admixtures ([4]; 4 weeks storage) was 1.506%, the Max admixture ([4]; 20 weeks storage) was 0.298% and the Sum of admixtures ([4]; 20 weeks storage) was 1.493%. The Max admixture ([4]; before the test) was 0.342%, the Sum of admixtures ([4]; before the test) was 1.312% and the “storage stability, in words” value ([4]; temperature 4.7° C.) was “stability”.
